Measurements from patent publication US9527830B2 (Merck Sharp & Dohme Corp., priority 2011, dated 2016).

Target: T1, hROMK1 (Kir1.1) (Homo sapiens, UniProt P48048)
T1 construct: expressed in transfected cells
T1 sequence (P48048 1-391): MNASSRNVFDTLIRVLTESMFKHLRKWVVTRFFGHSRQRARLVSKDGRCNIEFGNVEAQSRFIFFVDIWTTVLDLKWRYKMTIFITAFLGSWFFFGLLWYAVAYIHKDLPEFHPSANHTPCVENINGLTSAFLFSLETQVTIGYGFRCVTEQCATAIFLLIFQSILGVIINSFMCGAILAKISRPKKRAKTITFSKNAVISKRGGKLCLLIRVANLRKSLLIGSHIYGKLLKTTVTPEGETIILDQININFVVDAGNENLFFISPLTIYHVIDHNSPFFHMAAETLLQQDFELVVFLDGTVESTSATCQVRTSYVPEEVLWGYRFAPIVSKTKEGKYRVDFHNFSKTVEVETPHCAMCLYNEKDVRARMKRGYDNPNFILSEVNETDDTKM
Assay: ^86Rb^+ Efflux Assay
Format: cell-based
Settings: CHO-DHFR- cells stably expressing hROMK1; potency ranges
Experimental: Several assays may be used to measure functional inhibition of the ROMK channel by compounds of the instant invention. One primary assay that can be used is a functional ^86Rb^+ efflux assay that measures the ability of ROMK to permeate ^86Rb^+, in the absence or presence of test compound. Under control conditions, cells loaded with ^86Rb^+ and incubated in Rb^+-free medium display a time-dependent efflux of the isotope, the rate of which depends on number of functional channels. When cells are incubated in the presence of a channel inhibitor, efflux of ^86Rb^+ is prevented in a concentration-dependent manner, and IC50 values of inhibition by compounds can be accurately determined. This assay has been established with cell lines expressing either human, rat or dog ROMK channels, and can operate in 96- or 384-well format. Importantly, the human, rat, and dog ^86Rb^+ efflux assays can be carried out in the presence of up to 100% serum allowing, therefore, an accurate estimation of the effect of protein binding on the inhibitory activity of compounds of interest. Another ROMK functional assay makes use of the ability of thallium to permeate through open ROMK channels and increase the fluorescence of a dye previously loaded into the cells. Under control conditions, cells loaded with dye and exposed to thallium-containing medium display a time-dependent increase in fluorescence, the rate of which depends on number of functional channels. When cells are incubated in the presence of a channel inhibitor, the increase in fluorescence is attenuated in a concentration-dependent manner, and IC50 values of inhibition by compounds can be accurately determined. This assay has been established with cell lines expressing either human, or rat ROMK channels, and operates in 384-well format. Another assay for evaluation of the compounds of the instant invention and for evaluation of mechanism of action of compounds of Formula I relies on the measurement of the electrical current that is generated as potassium permeates through the channel. For these electrophysiological experiments, three different platforms, IonWorks, QPatch, or manual patch clamp, are used, depending on the experimental protocol under consideration. IonWorks operates in a 384-well format and allows accurate determination of IC50 values for inhibitors.
CHO-DHFR-cells stably expressing hROMK1 (Kir1.1) were grown at 37° C. in a 10% CO2 humidified incubator in Iscove's Modified Dulbecco's Medium (Gibco 12440) supplemented with HT Supplement, Penicillin/Streptomycin/Glutamine, G418 (500 μg/ml) and 10% FBS. Cells were seeded in Sterile and Tissue Culture Treated Packard CulturPlate White Opaque Microplates at a concentration of 5.0E5-7.0E5 cells/ml—PerkinElmer 6005680 (96-well); Corning 3707 (384 well) in complete media containing 1.5 μCi/ml Rubidium-86. Cells were incubated in 37° C.-10% CO2 incubator overnight. On the day of the experiment, the media was removed and cells washed with low K assay buffer. ^86Rb^+ efflux was initiated after addition of assay buffer±test compound followed by 35 min incubation at room temperature. ROMK-sensitive component of efflux was defined in the presence of 10 mM BaCl2. Assay buffer was removed and transferred to a plate and cells were solubilized in the presence of SDS. Radioactivity associated with assay and cell plate was determined.
• 1. Removed cell media and washed cells with low K assay buffer (126.9 mM NaCl, 4.6 mM KCl, 2 mM CaCl2, 1 mM MgCl2, 10 mM Hepes/NaOH; pH 7.4) • 200 μl for 96-well plate; 70 μl for 384-well plate • 2. Added assay buffer (121.5 mM NaCl, 10 mM KCl, 2 mM CaCl2, 1 mM MgCl2, 10 mM Hepes/NaOH; pH 7.4)±test compound to cells • 100 μl for 96-well plate; 50 μl for 384-well plate • 3. Incubated at ambient temperature (22-24° C.) for 35 min • 4.

IC50 [nM] | Structure (SMILES)
≤ 200 | O=C1OCc2c1ccc(CCC1CCN(C(=O)Cc3ccc(-n4cnnn4)cc3)CC1)c2F [Example 57, 4-Fluoro-5-[2-(1-{[4-(1H-tetrazol-1-yl)phenyl]acetyl}piperidin-4-yl)ethyl]-2-benzofuran-1(3H)-one]
≤ 500 | N#Cc1c(F)ccc(C#CC2(O)CCN(C(=O)Cc3ccc(-n4cnnn4)cc3)CC2)c1Cl [Example 39, 2-Chloro-6-fluoro-3-[(4-hydroxy-1-{[4-(1H-tetrazol-1-yl)phenyl]acetyl}piperidin-4-yl)ethynyl]benzonitrile]
≤ 200 | CC1Cc2cc(/C=C/C3CCN(C(=O)Cc4ccc(-n5cnnn5)cc4)CC3)ccc2C(=O)O1 (stereo not shown) [Example 79, 3-Methyl-6-[(E)-2-(1-{[4-(1H-tetrazol-1-yl)phenyl]acetyl}piperidin-4-yl)ethenyl]-3,4-dihydro-1H-isochromen-1-one]
≤ 500 | N#Cc1ccc(/C=C/C2CCN(CCc3ccc4c(c3)COC4=O)CC2)cc1 [Example 84, 4-[(E)-2-{1-[2-(1-Oxo-1,3-dihydro-2-benzofuran-5-yl)ethyl]piperidin-4-yl}ethenyl]benzonitrile]
≤ 200 | Cc1c(/C=C/C2CCN(C(=O)Cc3ccc(-n4cnnn4)cc3)CC2)ccc2c1COC2=O [Example 41, 4-Methyl-5-[(E)-2-(1-{[4-(1H-tetrazol-1-yl)phenyl]acetyl}piperidin-4-yl)ethenyl]-2-benzofuran-1(3H)-one]
≤ 200 | COc1cc(C#N)c(F)cc1CC(=O)N1CCC(CCc2ccc3c(c2)COC3=O)CC1 [Example 70, 2-Fluoro-5-methoxy-4-(2-oxo-2-{4-[2-(1-oxo-1,3-dihydro-2-benzofuran-5-yl)ethyl]piperidin-1-yl}ethyl)benzonitrile]
≤ 500 | N#Cc1cc(CCC2(O)CCN(C(=O)Cc3ccc(-n4cnnn4)cc3C(F)(F)F)CC2)ccc1F [Example 31, 2-Fluoro-5-[2-(4-hydroxy-1-{[4-(1H-tetrazol-1-yl)-2-(trifluoromethyl)phenyl]acetyl}piperidin-4-yl)ethyl]benzonitrile]
≤ 500 | O=C1OCc2cc(SC3CCN(C(=O)Cc4ccc(-n5cnnn5)cc4)CC3)ccc21 [Example 51, 5-[(1-{[4-(1H-Tetrazol-1-yl)phenyl]acetyl}piperidin-4-yl)sulfanyl]-2-benzofuran-1(3H)-one]
≤ 500 | N#Cc1c(F)ccc(C#CC2(O)CCN(C(=O)Cc3ccc(-n4cnnn4)cc3)CC2)c1F [Example 33, 2,6-Difluoro-3-[(4-hydroxy-1-{[4-(1H-tetrazol-1-yl)phenyl]acetyl}piperidin-4-yl)ethynyl]benzonitrile]
≤ 200 | O=C1OCc2c1ccc(CCC1CCN(C(=O)Cc3ccc(-n4cnnn4)cc3)CC1)c2Br [Example 59, 4-Bromo-5-[2-(1-{[4-(1H-tetrazol-1-yl)phenyl]acetyl}piperidin-4-yl)ethyl]-2-benzofuran-1(3H)-one]
≤ 500 | N#Cc1ccc(CC(=O)N2CCC(CCc3ccc4c(c3)COC4=O)CC2)cc1Br [Example 64, 2-Bromo-4-[2-oxo-2-[4-[2-(1-oxo-3H-isobenzofuran-5-yl)ethyl]-1-piperidyl]ethyl]benzonitrile]
≤ 500 | N#Cc1cc(/C=C/C2(O)CCN(C(=O)Cc3ccc(-n4cnnn4)cc3)CC2)ccc1F [Example 29, 2-Fluoro-5-[(E)-2-(4-hydroxy-1-{[4-(1H-tetrazol-1-yl)phenyl]acetyl}piperidin-4-yl)ethenyl]benzonitrile]
≤ 200 | O=C1OCc2cc(OCC3CCN(C(=O)Cc4ccc(-n5cnnn5)cc4)CC3)ccc21 [Example 55, 5-[(1-{[4-(1H-Tetrazol-1-yl)phenyl]acetyl}piperidin-4-yl)methoxy]-2-benzofuran-1(3H)-one]
≤ 200 | O=C(Cc1ccc(-n2cnnn2)cc1)N1CCC(Sc2ccc([N+](=O)[O-])cc2)CC1 [Example 12, 1-{4-[(4-Nitrophenyl)sulfanyl]piperidin-1-yl}-2-[4-(1H-tetrazol-1-yl)phenyl]ethanone]
≤ 500 | COc1cc(CC(=O)N2CCC(CCc3ccc4c(c3)COC4=O)CC2)ccc1C#N [Example 53, 2-Methoxy-4-(2-oxo-2-(4-[2-(1-oxo-1,3-dihydro-2-benzofuran-5-yl)ethyl]piperidin-1-yl}ethyl]benzonitrile]
≤ 500 | N#Cc1c(F)ccc(CCC2(O)CCN(C(=O)Cc3ccc(-n4cnnn4)cc3)CC2)c1Cl [Example 40, 2-Chloro-6-fluoro-3-[2-(4-hydroxy-1-{[4-(1H-tetrazol-1-yl)phenyl]acetyl}piperidin-4-yl)ethyl]benzonitrile]
≤ 500 | Cc1c(C#CC2(O)CCN(C(=O)Cc3ccc(-n4cnnn4)cc3)CC2)ccc(F)c1C#N [Example 36, 6-Fluoro-3-[(4-hydroxy-1-{[4-(1H-tetrazol-1-yl)phenyl]acetyl}piperidin-4-yl)ethynyl]-2-methylbenzonitrile]
≤ 500 | N#Cc1cc(CCC2(C(F)F)CCN(C(=O)Cc3ccc(-n4cnnn4)cc3)CC2)ccc1F [Example 27, 5-{2-[4-(Difluoromethyl)-1-{[4-(1H-tetrazol-1-yl)phenyl]acetyl}piperidin-4-yl]ethyl}-2-fluorobenzonitrile]
≤ 500 | O=C1OCc2cc(/C=C/C3CCN(C(=O)Cc4ccc5c(c4)COC5=O)CC3)ccc21 [Example 47, 5-[(E)-2-{1-[(1-Oxo-1,3-dihydro-2-benzofuran-5-yl)acetyl]piperidin-4-}ethenyl]-2-benzofuran-1(3H)-one]

Structure (SMILES) | IC50 [nM]
O=[N+]([O-])c1ccc(CCC2CCN(CCc3ccc([N+](=O)[O-])cc3)CC2)cc1 [Example 3, 1,4-bis[2-(4-Nitrophenyl)ethyl]piperidine] | ≤ 200
O=[N+]([O-])c1ccc(/C=C/C2CCN(CCc3ccc([N+](=O)[O-])cc3)CC2)cc1 [Example 2, 4-[(E)-2-(4-Nitrophenyl)ethenyl]-1-[2-(4-nitrophenyl)ethyl]piperidine] | ≤ 200
COC(=O)C1(CCc2ccc([N+](=O)[O-])cc2)CCN(CCc2ccc([N+](=O)[O-])cc2)CC1 [Example 1, Methyl 1,4-bis[2-(4-nitrophenyl)ethyl]piperidine-4-carboxylate] | ≤ 200
